From ChEMBL document CHEMBL4507292 (2021)

What was measured:
[1] = biological target: Glutamate receptor ionotropic, kainate (Rattus norvegicus) (UniProt P22756+Q01812+P42260+P42264+Q63273); assay: Inhibition of Glutamate, Kainate at 10 µM in the Eurofins-Panlabs radioligand binding assay (Eurofins_assay_232700); settings: Compound concentration 10.0 uM
[2] = biological target: Sodium-dependent dopamine transporter (Homo sapiens, UniProt Q01959); assay: Inhibition of Transporter, Dopamine (DAT) at compound concentration of 10.0 uM in the Eurofins-Panlabs radioligand binding assay (Eurofins_assay_220320); set-up: ligand concentration 0.15 nM, non-specific ligand with concentration 10 uM Nomifensine, incubation time 3 h, incubation temperature 4 C
Chain of Sodium-dependent dopamine transporter (Q01959 whole entry): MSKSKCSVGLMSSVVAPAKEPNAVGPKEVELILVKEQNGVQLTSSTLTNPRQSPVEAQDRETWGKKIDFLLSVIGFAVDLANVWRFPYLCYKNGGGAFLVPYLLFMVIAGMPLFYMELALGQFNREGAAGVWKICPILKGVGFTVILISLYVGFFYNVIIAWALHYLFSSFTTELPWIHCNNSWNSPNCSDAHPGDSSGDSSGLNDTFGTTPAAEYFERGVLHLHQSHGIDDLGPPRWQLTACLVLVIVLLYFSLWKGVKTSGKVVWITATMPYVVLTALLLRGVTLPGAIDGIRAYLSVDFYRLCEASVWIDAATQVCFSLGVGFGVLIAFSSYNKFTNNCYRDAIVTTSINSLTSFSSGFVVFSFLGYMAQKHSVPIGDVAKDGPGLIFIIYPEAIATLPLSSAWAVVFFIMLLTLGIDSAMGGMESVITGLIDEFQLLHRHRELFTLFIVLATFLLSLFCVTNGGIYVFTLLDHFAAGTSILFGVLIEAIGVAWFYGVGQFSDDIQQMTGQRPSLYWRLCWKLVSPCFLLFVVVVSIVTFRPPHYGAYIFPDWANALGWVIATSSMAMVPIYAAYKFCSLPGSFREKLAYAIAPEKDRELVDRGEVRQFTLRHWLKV

[3] = biological target: T1, Sodium-dependent noradrenaline transporter (Homo sapiens, UniProt P23975); assay: Inhibition of Transporter, Norepinephrine (NET) at compound concentration of 10.0 uM in the Eurofins-Panlabs radioligand binding assay (Eurofins_assay_204410); set-up: ligand concentration 0.2 nM, non-specific ligand with concentration 10 uM Desipramine, incubation time 3 h, incubation temperature 4 C
T1 sequence (P23975 whole entry): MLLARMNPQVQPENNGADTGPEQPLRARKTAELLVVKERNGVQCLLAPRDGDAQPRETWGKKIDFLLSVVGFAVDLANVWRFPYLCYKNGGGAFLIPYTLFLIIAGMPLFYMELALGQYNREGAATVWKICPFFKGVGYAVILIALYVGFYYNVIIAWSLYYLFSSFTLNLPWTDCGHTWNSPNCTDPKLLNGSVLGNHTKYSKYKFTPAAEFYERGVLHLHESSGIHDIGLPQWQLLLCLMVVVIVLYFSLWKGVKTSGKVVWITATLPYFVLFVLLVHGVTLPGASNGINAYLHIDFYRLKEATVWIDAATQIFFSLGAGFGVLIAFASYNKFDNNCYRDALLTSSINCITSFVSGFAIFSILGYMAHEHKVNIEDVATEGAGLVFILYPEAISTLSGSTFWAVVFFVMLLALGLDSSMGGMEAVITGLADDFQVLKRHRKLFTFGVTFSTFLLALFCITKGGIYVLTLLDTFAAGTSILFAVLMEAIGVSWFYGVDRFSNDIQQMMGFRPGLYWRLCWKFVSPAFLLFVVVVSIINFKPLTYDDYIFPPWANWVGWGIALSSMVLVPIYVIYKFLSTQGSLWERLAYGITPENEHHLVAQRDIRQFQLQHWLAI

[4] = biological target: Prostaglandin G/H synthase 1 (Homo sapiens) (UniProt P23219); assay: Inhibition of Cyclooxygenase COX-1 at compound concentration of 10.0 uM in the Eurofins-Panlabs enzyme assay (Eurofins_assay_116020); settings: Compound concentration 10.0 uM
[5] = biological target: monoamine oxidase A (MAO-A) (Homo sapiens, UniProt P21397); assay: Inhibition of Monoamine Oxidase MAO-A at compound concentration of 10.0 uM in the Eurofins-Panlabs enzyme assay (Eurofins_assay_140010); set-up: substrate with concentration 50 uM Kynuramine, incubation time 60 min, incubation temperature 37 C; settings: human recombinant MAO-A expressed in insect Hi5 cells, probe kynuramine, 50 uM, compound concentration 10 uM
[6] = biological target: 5-hydroxytryptamine receptor 4 (Homo sapiens) (UniProt Q13639); assay: Inhibition of Serotonin (5-Hydroxytryptamine) 5-HT4 at 10 µM in the Eurofins-Panlabs radioligand binding assay (Eurofins_assay_272000); settings: Cavia porcellus; Compound concentration 10.0 uM
Chain of 5-hydroxytryptamine receptor 4 (Homo sapiens) (Q13639 whole entry): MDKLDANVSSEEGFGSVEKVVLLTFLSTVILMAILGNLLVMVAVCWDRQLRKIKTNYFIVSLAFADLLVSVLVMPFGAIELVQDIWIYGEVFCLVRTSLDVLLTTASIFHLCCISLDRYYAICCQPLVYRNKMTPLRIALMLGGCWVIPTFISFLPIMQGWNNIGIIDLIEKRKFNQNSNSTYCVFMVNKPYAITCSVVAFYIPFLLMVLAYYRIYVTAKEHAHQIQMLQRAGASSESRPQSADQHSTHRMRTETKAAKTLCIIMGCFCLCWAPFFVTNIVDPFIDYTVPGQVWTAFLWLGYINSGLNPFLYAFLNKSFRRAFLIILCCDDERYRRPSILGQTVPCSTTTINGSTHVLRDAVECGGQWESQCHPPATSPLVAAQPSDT

Caspase-3 (Homo sapiens) = Caspase-3 (Homo sapiens) (UniProt P42574); assay: Peptidase, CASP3 (Caspase 3) Eurofins-Panlabs enzyme assay; settings: Compound concentration 10.0 uM
Chain of Caspase-3 (Homo sapiens) (P42574 29-175 limits assumed): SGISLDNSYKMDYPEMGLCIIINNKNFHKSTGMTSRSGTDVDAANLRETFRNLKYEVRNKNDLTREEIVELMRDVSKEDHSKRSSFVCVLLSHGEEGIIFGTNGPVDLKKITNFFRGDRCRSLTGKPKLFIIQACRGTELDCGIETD
Chain of Caspase-3 (Homo sapiens) (P42574 176-277 limits assumed): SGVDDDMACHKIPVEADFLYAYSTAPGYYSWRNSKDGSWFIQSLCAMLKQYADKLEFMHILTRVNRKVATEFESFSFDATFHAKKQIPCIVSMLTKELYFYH

[7] = biological target: Polyunsaturated fatty acid 5-lipoxygenase (Homo sapiens) (UniProt P09917); assay: Lipoxygenase 5-LO Eurofins-Panlabs enzyme assay; settings: Compound concentration 10.0 uM
[8] = biological target: B1 bradykinin receptor (Homo sapiens) (UniProt P46663); assay: Bradykinin B1 Eurofins-Panlabs radioligand binding assay; settings: Compound concentration 10.0 uM
Chain of B1 bradykinin receptor (Homo sapiens) (P46663 whole entry): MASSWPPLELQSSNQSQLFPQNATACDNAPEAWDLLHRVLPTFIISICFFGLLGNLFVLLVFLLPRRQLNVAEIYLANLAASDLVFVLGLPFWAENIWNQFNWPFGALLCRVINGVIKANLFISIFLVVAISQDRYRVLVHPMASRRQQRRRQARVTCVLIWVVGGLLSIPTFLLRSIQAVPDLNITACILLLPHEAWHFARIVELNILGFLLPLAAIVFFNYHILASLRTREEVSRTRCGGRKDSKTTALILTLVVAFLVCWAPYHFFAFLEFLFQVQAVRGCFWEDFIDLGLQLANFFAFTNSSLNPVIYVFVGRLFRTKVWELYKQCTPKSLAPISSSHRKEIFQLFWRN

[9] = biological target: T2, D(4) dopamine receptor (Homo sapiens) (UniProt P21917); assay: Dopamine D4.4 Eurofins-Panlabs radioligand binding assay; set-up: ligand concentration 1.2 nM; settings: Compound concentration 10.0 uM
T2 sequence (whole entry): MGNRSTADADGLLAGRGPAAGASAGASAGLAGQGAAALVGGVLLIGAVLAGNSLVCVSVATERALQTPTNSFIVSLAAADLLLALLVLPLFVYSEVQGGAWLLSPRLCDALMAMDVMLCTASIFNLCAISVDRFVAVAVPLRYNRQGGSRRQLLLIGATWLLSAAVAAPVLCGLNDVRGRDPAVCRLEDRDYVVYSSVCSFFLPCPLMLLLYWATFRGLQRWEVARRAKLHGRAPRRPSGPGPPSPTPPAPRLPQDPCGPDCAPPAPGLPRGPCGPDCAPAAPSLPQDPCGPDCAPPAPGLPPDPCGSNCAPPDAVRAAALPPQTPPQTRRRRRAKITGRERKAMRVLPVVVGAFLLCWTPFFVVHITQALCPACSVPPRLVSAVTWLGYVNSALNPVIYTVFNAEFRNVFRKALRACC

[10] = biological target: Galanin receptor type 2 (Homo sapiens) (UniProt O43603); assay: Galanin GAL2 Eurofins-Panlabs radioligand binding assay; set-up: ligand concentration 0.02 nM; settings: Compound concentration 10.0 uM
Chain of Galanin receptor type 2 (Homo sapiens) (O43603 whole entry): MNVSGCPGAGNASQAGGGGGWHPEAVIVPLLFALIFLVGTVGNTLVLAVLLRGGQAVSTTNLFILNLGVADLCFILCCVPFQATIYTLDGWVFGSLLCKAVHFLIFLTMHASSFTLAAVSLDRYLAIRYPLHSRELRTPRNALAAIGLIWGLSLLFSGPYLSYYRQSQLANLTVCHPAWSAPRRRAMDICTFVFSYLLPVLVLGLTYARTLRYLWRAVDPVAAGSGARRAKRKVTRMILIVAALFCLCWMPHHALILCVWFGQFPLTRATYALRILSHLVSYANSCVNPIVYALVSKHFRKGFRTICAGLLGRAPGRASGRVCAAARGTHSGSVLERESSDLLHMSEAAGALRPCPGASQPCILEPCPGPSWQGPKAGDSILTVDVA

[11] = biological target: Inositol 1,4,5-trisphosphate-gated calcium channel ITPR1 (Homo sapiens) (UniProt Q14643); assay: Inositol Trisphosphate IP3 Eurofins-Panlabs radioligand binding assay; settings: Rattus norvegicus; Compound concentration 10.0 uM
[12] = biological target: Prostacyclin receptor (Homo sapiens) (UniProt P43119); assay: Prostanoid IP Eurofins-Panlabs radioligand binding assay; set-up: ligand concentration 5 nM; settings: Compound concentration 10.0 uM
Rattus norvegicus = species: Rattus norvegicus; assay: Serotonin (5-Hydroxytryptamine) 5-HT2, Non-Selective Eurofins-Panlabs radioligand binding assay; type: protein assay; settings: Compound concentration 10.0 uM
[13] = biological target: Somatostatin receptor type 4 (Homo sapiens, UniProt P31391); assay: Somatostatin sst4 Eurofins-Panlabs radioligand binding assay; set-up: ligand concentration 0.1 nM, non-specific ligand with concentration 1 µM Somatostatin-14, incubation time 45 min, incubation temperature 25 °C
Chain of Somatostatin receptor type 4 (P31391 whole entry): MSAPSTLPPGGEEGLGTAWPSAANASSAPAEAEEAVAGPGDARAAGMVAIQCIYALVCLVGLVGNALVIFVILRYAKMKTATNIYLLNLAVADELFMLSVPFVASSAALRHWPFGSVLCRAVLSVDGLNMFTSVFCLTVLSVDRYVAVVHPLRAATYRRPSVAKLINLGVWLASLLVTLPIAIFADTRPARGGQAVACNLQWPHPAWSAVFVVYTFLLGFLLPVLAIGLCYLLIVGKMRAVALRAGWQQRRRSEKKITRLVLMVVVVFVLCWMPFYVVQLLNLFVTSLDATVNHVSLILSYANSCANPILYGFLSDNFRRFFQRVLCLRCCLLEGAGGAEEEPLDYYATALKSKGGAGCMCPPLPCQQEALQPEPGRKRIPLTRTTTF

[14] = biological target: Protein kinase C iota type (Homo sapiens) (UniProt P41743); settings: Compound concentration 1000.0 nM
[15] = biological target: SNF-related serine/threonine-protein kinase (Homo sapiens) (UniProt Q9NRH2); settings: Compound concentration 1000.0 nM
D(1A) dopamine receptor = D(1A) dopamine receptor (Homo sapiens, UniProt P21728); settings: Compound concentration 10.0 uM
[16] = biological target: D(2) dopamine receptor (Homo sapiens) (UniProt P14416); settings: Compound concentration 10.0 uM
Chain of D(2) dopamine receptor (Homo sapiens) (P14416 whole entry): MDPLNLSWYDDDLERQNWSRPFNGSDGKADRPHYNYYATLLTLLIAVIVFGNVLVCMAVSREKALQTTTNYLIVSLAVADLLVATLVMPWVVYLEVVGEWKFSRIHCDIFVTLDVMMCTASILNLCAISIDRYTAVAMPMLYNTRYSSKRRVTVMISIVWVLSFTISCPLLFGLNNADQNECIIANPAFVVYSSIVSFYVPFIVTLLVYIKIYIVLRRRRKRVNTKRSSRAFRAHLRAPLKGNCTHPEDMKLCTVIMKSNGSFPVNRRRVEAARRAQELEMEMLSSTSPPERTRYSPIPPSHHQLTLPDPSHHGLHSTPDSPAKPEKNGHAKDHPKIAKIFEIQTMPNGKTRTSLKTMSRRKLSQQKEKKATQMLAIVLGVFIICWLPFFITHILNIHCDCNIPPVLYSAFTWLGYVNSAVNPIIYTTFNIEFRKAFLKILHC

[17] = biological target: Estrogen receptor (Homo sapiens) (UniProt P03372); settings: Compound concentration 10.0 uM
Chain of Estrogen receptor (Homo sapiens) (P03372 whole entry): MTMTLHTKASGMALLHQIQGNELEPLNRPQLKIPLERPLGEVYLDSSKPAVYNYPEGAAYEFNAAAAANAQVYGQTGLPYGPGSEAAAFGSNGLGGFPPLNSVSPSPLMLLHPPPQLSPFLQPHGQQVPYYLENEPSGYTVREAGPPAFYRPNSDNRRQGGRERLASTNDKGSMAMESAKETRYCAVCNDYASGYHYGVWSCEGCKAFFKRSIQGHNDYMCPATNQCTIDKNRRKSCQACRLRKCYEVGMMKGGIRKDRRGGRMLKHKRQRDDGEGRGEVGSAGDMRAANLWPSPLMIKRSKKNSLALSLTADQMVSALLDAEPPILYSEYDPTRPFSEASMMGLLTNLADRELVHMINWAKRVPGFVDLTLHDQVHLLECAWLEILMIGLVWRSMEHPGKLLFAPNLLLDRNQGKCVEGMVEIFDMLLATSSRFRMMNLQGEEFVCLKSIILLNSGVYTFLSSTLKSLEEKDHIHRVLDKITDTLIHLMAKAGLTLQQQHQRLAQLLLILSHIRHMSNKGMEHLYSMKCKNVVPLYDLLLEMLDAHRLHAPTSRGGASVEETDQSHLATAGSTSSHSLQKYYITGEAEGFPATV

[18] = biological target: Glutamate NMDA receptor (Rattus norvegicus) (UniProt P35439+Q00959+Q00960+Q00961+Q62645+Q8VHN2+Q9R1M7); settings: Compound concentration 10.0 uM
[19] = biological target: Kappa-type opioid receptor (Homo sapiens, UniProt P41145)
Chain of Kappa-type opioid receptor (P41145 whole entry): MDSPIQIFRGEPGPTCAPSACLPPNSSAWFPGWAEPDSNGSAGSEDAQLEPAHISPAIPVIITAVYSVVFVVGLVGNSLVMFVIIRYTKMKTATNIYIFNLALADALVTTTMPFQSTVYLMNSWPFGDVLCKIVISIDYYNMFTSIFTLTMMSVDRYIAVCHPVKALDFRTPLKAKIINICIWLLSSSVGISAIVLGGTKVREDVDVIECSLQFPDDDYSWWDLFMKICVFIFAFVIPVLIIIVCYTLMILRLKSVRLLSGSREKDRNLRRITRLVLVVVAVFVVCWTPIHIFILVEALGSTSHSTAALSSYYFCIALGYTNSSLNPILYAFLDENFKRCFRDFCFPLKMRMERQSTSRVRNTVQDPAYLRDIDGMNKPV

[20] = biological target: T3, 5-hydroxytryptamine receptor 1A (Homo sapiens) (UniProt P08908)
T3 sequence (whole entry): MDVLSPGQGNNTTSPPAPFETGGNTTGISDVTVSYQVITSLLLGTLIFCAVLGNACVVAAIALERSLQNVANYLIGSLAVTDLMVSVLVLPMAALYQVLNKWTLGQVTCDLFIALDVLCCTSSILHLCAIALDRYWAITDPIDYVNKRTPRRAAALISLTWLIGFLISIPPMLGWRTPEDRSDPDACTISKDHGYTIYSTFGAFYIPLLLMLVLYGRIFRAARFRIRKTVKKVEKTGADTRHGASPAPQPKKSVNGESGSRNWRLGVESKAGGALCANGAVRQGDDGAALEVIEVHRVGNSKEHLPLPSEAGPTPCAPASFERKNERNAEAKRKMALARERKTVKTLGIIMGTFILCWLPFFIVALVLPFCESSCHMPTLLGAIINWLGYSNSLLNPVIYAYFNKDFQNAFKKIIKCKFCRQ

[21] = biological target: T1, Sodium-dependent noradrenaline transporter
[22] = biological target: Beta-3 adrenergic receptor (Homo sapiens, UniProt P13945)
Chain of Beta-3 adrenergic receptor (P13945 whole entry, looked up): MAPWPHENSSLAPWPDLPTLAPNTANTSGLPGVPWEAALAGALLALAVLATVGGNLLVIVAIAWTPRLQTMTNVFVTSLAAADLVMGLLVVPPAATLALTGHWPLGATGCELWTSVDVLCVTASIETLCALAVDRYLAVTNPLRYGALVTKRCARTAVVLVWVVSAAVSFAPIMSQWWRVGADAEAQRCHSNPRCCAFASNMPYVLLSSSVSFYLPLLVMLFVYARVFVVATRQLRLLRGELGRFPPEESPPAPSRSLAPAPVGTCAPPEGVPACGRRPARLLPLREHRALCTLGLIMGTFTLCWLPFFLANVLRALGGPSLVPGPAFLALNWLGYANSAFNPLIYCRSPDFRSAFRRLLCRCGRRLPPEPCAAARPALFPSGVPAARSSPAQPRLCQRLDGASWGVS

O=C(O)c1cc(-c2ccc(C3CCNCC3)cc2)c2ccc(-c3ccc(C(F)(F)F)cc3)cc2c1 [PPTN]
1.83 µM: Ki [2]
inactive: inhibition [1] -1% | inhibition [4] 4% | inhibition [6] 11% | inhibition (Caspase-3 (Homo sapiens)) 3% | inhibition [7] -9% | inhibition [8] 12% | inhibition [9] -8% | inhibition [10] 31% | inhibition [11] 9% | inhibition [12] -3% | inhibition (Rattus norvegicus) 0% | inhibition ([13]; Compound concentration 0.01 uM) -5% | inhibition ([13]; Compound concentration 0.1 uM) 7% | inhibition ([13]; Compound concentration 1.0 uM) 17% | residual activity [14] 82% | residual activity [15] 71% | inhibition (D(1A) dopamine receptor) 22% | inhibition [16] 28% | inhibition [17] 12% | inhibition [18] 1% | inhibition ([19]; Compound concentration 0.1 uM) -1% | inhibition ([19]; Compound concentration 1.0 uM) 1% | inhibition ([20]; Compound concentration 0.01 uM) 0% | inhibition ([20]; Compound concentration 0.1 uM) -2% | inhibition ([20]; Compound concentration 1.0 uM) 4% | inhibition ([21]; Compound concentration 0.01 uM) 6% | inhibition ([21]; Compound concentration 0.1 uM) -2% | inhibition ([21]; Compound concentration 1.0 uM) 20% | inhibition ([22]; Compound concentration 0.01 uM) -2% | inhibition ([22]; Compound concentration 0.1 uM) -8% | inhibition ([22]; Compound concentration 1.0 uM) 0%
active: inhibition ([13]; Compound concentration 10.0 uM) 65% | inhibition ([19]; Compound concentration 10.0 uM) 63% | inhibition ([20]; Compound concentration 10.0 uM) 64% | inhibition ([21]; Compound concentration 10.0 uM) 78% | inhibition ([22]; Compound concentration 10.0 uM) 53%
3.3 µM: IC50 [3]
5.3 µM: IC50 [13]
3.27 µM: Ki [3]
2.31 µM: IC50 [2]
22% (not active): inhibition at 60 min, 10 µM [5]
